Source: PubChem BioAssay (NCI)
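A five-concentration, 48-hour dose response in 96-well plates underlies each endpoint, interpolated linearly between surrounding concentrations. GI50: concentration for 50% inhibition of growth. TGI is the concentration that stops growth completely.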

How the values were obtained:
Test in all cases: DTP human tumour cell line panel, 48 h
BT-549 breast = tested on: BT-549 breast
CCRF-CEM leukemia = tested on: CCRF-CEM leukemia
HCT-116 colon = tested on: HCT-116 colon
IGROV1 ovarian = tested on: IGROV1 ovarian
M14 melanoma = tested on: M14 melanoma
NCI-H460 lung = tested on: NCI-H460 lung
SF-539 CNS = tested on: SF-539 CNS
SK-MEL-5 melanoma = tested on: SK-MEL-5 melanoma
SN12C renal = tested on: SN12C renal
SW-620 colon = tested on: SW-620 colon

Structure (SMILES) | TGI (BT-549 breast) [µM] | TGI (CCRF-CEM leukemia) [µM] | TGI (HCT-116 colon) [µM] | TGI (IGROV1 ovarian) [µM] | TGI (M14 melanoma) [µM] | TGI (NCI-H460 lung) [µM] | TGI (SF-539 CNS) [µM] | TGI (SK-MEL-5 melanoma) [µM] | TGI (SN12C renal) [µM] | TGI (SW-620 colon) [µM] | GI50 (BT-549 breast) [µM] | GI50 (CCRF-CEM leukemia) [µM] | GI50 (HCT-116 colon) [µM] | GI50 (M14 melanoma) [µM] | GI50 (SF-539 CNS) [µM] | GI50 (SK-MEL-5 melanoma) [µM] | GI50 (SN12C renal) [µM] | GI50 (SW-620 colon) [µM]
O=[N+]([O-])c1ccc2sc(C=Nc3cnccn3)cc2c1 | > 100 | 40.4 | > 100 | > 100 | > 100 | > 100 | > 100 | > 100 | > 100 | > 100 |  |  |  |  |  |  |  | 
CCNCCCn1c2c(c3ccc(Cl)cc3c1=O)C(=O)c1cc(OC)cnc1-2 | 20.3 | 1.75 | 1.56 |  | 2.06 |  | 1.71 | 2.49 | 2.79 | 1.76 | 0.813 | 0.0239 | 0.203 | 0.518 | 0.506 | 0.813 | 0.675 | 0.0316
CCCCC(=O)c1c(O)nc2sccn2c1=O |  | > 10 | > 10 | > 10 | > 10 | > 10 | > 10 | > 10 | > 10 | > 10 |  |  |  |  |  |  |  | 
CCCCOC(=O)C(NC(C(=O)OCCCC)c1cc(C(C)(C)C)c(O)c(C(C)(C)C)c1)c1cc(C(C)(C)C)c(O)c(C(C)(C)C)c1 (stereo unspecified) | > 100 | > 100 | > 100 | > 100 | > 100 |  | > 100 | > 100 | > 100 | > 100 |  |  |  |  |  |  |  | 
C[N+](C)(C)c1ccc(C(N)C(=O)O)cc1 (stereo unspecified) | > 100 | > 100 | > 100 | > 100 | > 100 | > 100 |  | > 100 | > 100 | > 100 |  |  |  |  |  |  |  | 
COc1ccc2c3c1OC1C(=O)C=CC4(CC2)N(C)CCC314 (stereo unspecified) | 90.8 | 51.5 | 29.1 | > 100 | 49.6 | 71.1 |  | 24.4 | > 100 | > 100 |  |  |  |  |  |  |  | 
CN(C)C(=O)OC1C(=O)N(C)c2ccc(Cl)cc2C2(c3ccccc3)N1C2(Cl)Cl (stereo unspecified) |  | > 100 | > 100 | > 100 | > 100 | > 100 |  | > 100 | > 100 | > 100 |  |  |  |  |  |  |  | 
C=C/C(C)=C\CC1[C@](C)(O)CC[C@H]2C(C)(C)C(=O)CC[C@]12C (stereo partly specified) |  | > 100 | > 100 | > 100 | > 100 | > 100 | > 100 | > 100 | > 100 | > 100 |  |  |  |  |  |  |  | 
NCCCN(CCCN(C(=O)Nc1ccccc1)c1ccccc1)C(=O)Nc1ccccc1 | > 100 | > 100 | > 100 | > 100 | 44.8 | 94.8 |  | 40.7 | > 100 | 52.3 |  |  |  |  |  |  |  | 
C[C@H](NC(=O)C(Cc1ccccc1)(Cc1ccc(O)cn1)NC(=O)c1ccccc1)c1ccccc1 (stereo partly specified) | 36.9 | > 100 | 28.7 | 37 | 29.4 |  | 34.2 | 33.7 | 31.5 | 59.3 |  |  |  |  |  |  |  | 
C[n+]1cccc2c(=O)c3ccccc3oc21 |  | > 100 | > 100 | > 100 | > 100 | > 100 | > 100 | > 100 | > 100 | > 100 |  |  |  |  |  |  |  | 
